Measured values: publication PMC7866885 (PeerJ, 2021)

Experiments:
Experiment in all cases: DHFR activity, NADPH consumption at […] nm
Type in all cases: biochemical
[1] = target: T1, S. suis dihydrofolate reductase (SsDHFR) (Streptococcus suis, UniProt A0A0H3N4C4)
T1 construct: gene dyr; full-length dhfr in pET15b (NdeI/BamHI, N-terminal vector tag kept); clarified lysate of E. coli BL21(DE3), not purified
T1 sequence (A0A0H3N4C4 1-170): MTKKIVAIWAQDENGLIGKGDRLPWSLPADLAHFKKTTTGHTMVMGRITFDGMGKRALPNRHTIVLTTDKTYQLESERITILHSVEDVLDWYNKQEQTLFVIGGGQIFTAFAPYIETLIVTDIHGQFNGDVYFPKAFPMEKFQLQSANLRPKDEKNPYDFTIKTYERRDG

[2] = target: T1, S. suis dihydrofolate reductase (SsDHFR); conditions: 0.1 mM dihydrofolate, 0.1 mM NADPH, 50 mM TES pH 7.0; lysate
[3] = target: T1, S. suis dihydrofolate reductase (SsDHFR); conditions: 1 µM inhibitor; 0.1 mM dihydrofolate, 0.1 mM NADPH, 50 mM TES pH 7.0; lysate of overexpressing E. coli BL21(DE3), host DHFR background present

SMILES: COc1ccc(OC)c(NCc2ccc3nc(N)nc(N)c3c2Cl)c1 [MMV675968]
- remaining activity at 1 µM [1]: 2%

SMILES: NC(=O)C1=CN([C@@H]2O[C@H](COP(=O)(O)OP(=O)(O)OC[C@H]3O[C@@H](n4cnc5c(N)ncnc54)[C@H](OP(=O)(O)O)[C@@H]3O)[C@@H](O)[C@H]2O)C=CC1 [NADPH]
- DHFR activity, NADPH consumption at 340 nm [2]: DHFR uses NADPH as a cofactor for the conversion of dihydrofolate (DHF) to tetrahydrofolate (THF)

SMILES: CC1(C)N=C(N)N=C(N)N1c1ccc(Cl)cc1 [cycloguanil]
- % activity at 1 μM [3]: Trimethoprim, pyrimethamine, and cycloguanil were moderately effective at inhibiting SsDHFR

SMILES: CCc1nc(N)nc(N)c1-c1ccc(Cl)cc1 [pyrimethamine]
- % activity at 1 μM [3]: Trimethoprim, pyrimethamine, and cycloguanil were moderately effective at inhibiting SsDHFR
